Tests used:
[1] = test system: Murine J744.1 macrophages; experiment: Cell assay: detection of peroxynitrite in living cells by fluorescent microscopy; type: cell-based; settings: for fluorescence observed in the absence of stimulants: J744.1 macrophages incubated with 20 μM probe for 1 hr
Protocol: (§1) Murine J744.1 macrophages (ATCC, USA) were used to investigate the potential of Compound 22 (acetate form of Compound 10) for the detection of peroxynitrite in living cells. J744.1 macrophages were cultured in Dulbecco's Modified Eagle's Medium (DMEM) (Gibco) containing 10% heat-inactivated fetal bovine serum (Gibco) supplemented with 100 U/ml of penicillin and 100 μg/ml streptomycin at 37° C., 5% CO2. They were subcultured by scraping and seeded on six-well plates according to manufacture's instruction. The growth medium was changed every two to three days. Cells were grown to confluence prior to experiment. Murine J744.1 macrophages were incubated with Compound 22 (20 μM) for 1 hr and then washed three times with PBS buffer.
as §1, with “12 and 12a” for “22 (acetate form of Compound 10)”, “12 or 12a” for “22”, “buffer. […] The fluorescence was induced after treatment with LPS (lipopolysaccharide, 1 μg/ml) for 4 hrs (FIG. 9D and FIG. 10B).” for “buffer.”

[2] = Emission spectra of the probe itself; type: physicochemical; settings: 10 μM, 0.1 M phosphate buffer pH 7.4, excitation 520 nm, Hitachi F7000, 900 V
Protocol: (§2) Compound 10 obtained in Example 4 was dissolved in DMF to a concentration of 10 mM, and then the solution was diluted to 10 μM by 0.1 M phosphate buffer (pH 7.4). The fluorescence spectrum of the 10 μM solution of Compound 10 was measured using a Hitachi F2500 fluorescence spectrometer and the photomultiplier voltage was 700 V. The slit width was 2.5 nm for both excitation and emission. The measurement was carried out at an excitation wavelength of 520 nm. The results shown in FIG. 1 indicate that Compound 10 itself is non-fluorescent.
(§3) Compound 12 obtained in Example 5 was dissolved in DMF to a concentration of 1 mM, and then the solution was diluted to 1 μM by 0.1 M phosphate buffer (pH 7.4). The fluorescence spectrum of the 1 μM solution of Compound 12 was measured using a Hitachi F2500 fluorescence spectrometer and the photomultiplier voltage was 700 V. The slit width was 2.5 nm for both excitation and emission. The measurement was carried out at an excitation wavelength of 515 nm. The results shown in FIG. 4 indicate that Compound 12 itself is non-fluorescent.
as §3, with “Compound 14” for “Compound 12”, “Example 6” for “Example 5”, “FIG. 6” for “FIG. 4”
as §2, with “Compound 30” for “Compound 10”, “Example 7” for “Example 4”, “Hitachi F7000” for “Hitachi F2500”, “was 900” for “was 700”, “nm.” for “nm. The results shown in FIG. 1 indicate that Compound 10 itself is non-fluorescent.”

[3] = UV-visible absorption spectrum; type: physicochemical; settings: 10 μM solution, pH 7.4 0.1 M phosphate buffer, 0.1% DMF
Protocol: Compound 10 obtained in Example 4 was dissolved in pH 7.4 0.1 M phosphate buffer containing 0.1% DMF as cosolvent to form a 10 μM solution.
Compound 12 obtained in Example 5 was dissolved in pH 7.4 0.1 M phosphate buffer containing 0.1% DMF as cosolvent to form a 1 μM solution.
Compound 14 obtained in Example 6 was dissolved in pH 7.4 0.1 M phosphate buffer containing 0.1% DMF as cosolvent to form a 1 μM solution.
Compound 30 obtained in Example 7 was dissolved in pH 7.4 0.1 M phosphate buffer containing 0.1% DMF as cosolvent to form a 10 μM solution. The absorption spectrum of the 10 μM solution of Compound 30 was measured.

[4] = Detection of peroxynitrite: fluorescence spectra after addition of peroxynitrite; settings: 10 μM probe, 0.1 M potassium phosphate buffer pH 7.4, measured after 5 minutes, excitation 520 nm
Protocol: Compound 10 obtained in Example 4 was dissolved in DMF to a concentration of 10 mM, and then the solution was diluted to 10μM by 0.1 M potassium phosphate buffer (pH 7.4). Peroxynitrite solution in 0.1 M NaOH was prepared by the method of Keith and Powell (Keith, W. G. & Powell, R. E.; Kinetics of decomposition of peroxynitrous acid; J. Chem. Soc. A, 1969, 1, 90), and its concentration in the stock solutions used was estimated by using an extinction coefficient of 1670 cm^−1 (mol/L)^−1 at 302 nm (Hughes and Nicklin; The chemistry of pernitrites. Part I. Kinetics of decomposition of pernitrious acid; J. Chem. Soc. A, 1968, 2, 450-452). Peroxynitrite stock solution was added into the solution of Compound 10 to provide various final concentrations, like 0, 2, 6, 10, 20, 30, 50 100, and 200 μM. Fluorescence spectra of the solutions were measured after 5 minutes under the same conditions as mentioned above.
Compound 12 obtained in Example 5 was dissolved in DMF to a concentration of 1 mM, and then the solution was diluted to 1 μM by 0.1 M potassium phosphate buffer (pH 7.4). Peroxynitrite solution in 0.1 M NaOH was prepared by the method of Keith and Powell (Keith, W. G. & Powell, R. E.; Kinetics of decomposition of peroxynitrous acid; J. Chem. Soc. A, 1969, 1, 90), and its concentration in the stock solutions used was estimated by using an extinction coefficient of 1670 cm^−1 (mol/L)^−1 at 302 nm (Hughes and Nicklin; The chemistry of pernitrites. Part I. Kinetics of decomposition of pernitrious acid; J. Chem. Soc. A, 1968, 2, 450-452). Peroxynitrite stock solution was added into the solution of Compound 12 to provide various final concentrations, like 0, 1, 2, 3, 4, 5, 6, and 7 μM. Fluorescence spectra of the solutions were measured after 5 minutes under the same conditions as mentioned above.
Compound 30 obtained in Example 7 was dissolved in DMF to a concentration of 10 mM, and then the solution was diluted to 10 μM by 0.1 M potassium phosphate buffer (pH 7.4). Peroxynitrite solution in 0.1 M NaOH was prepared by the method of Keith and Powell (Keith, W. G. & Powell, R. E.; Kinetics of decomposition of peroxynitrous acid; J. Chem. Soc. A, 1969, 1, 90), and its concentration in the stock solutions used was estimated by using an extinction coefficient of 1670 cm^−1 (mol/L)^−1 at 302 nm (Hughes and Nicklin; The chemistry of pernitrites. Part I. Kinetics of decomposition of pernitrious acid; J. Chem. Soc. A, 1968, 2, 450-452). Peroxynitrite stock solution was added into the solution of Compound 30 to provide various final concentrations. Fluorescence spectra of the solutions were measured after 5 minutes under the same conditions as mentioned above.

SMILES	fluorescence after treatment with LPS ([1]; 20 μM probe 1 hr, LPS 1 μg/ml for 4 hrs)	fluorescence observed in the absence of stimulants [1]	fluorescence after treatment with LPS and IFN-γ ([1]; 20 μM probe 1 hr, LPS 1 μg/ml and IFN-γ 50 ng/ml for 4 hrs)	fluorescence after additional stimulation by PMA ([1]; 20 μM probe 1 hr, LPS and IFN-γ 4 hrs, then PMA 10 nM for half an hour)	suitability for detection of peroxynitrite in stimulated macrophages ([1]; stimulated Murine J744.1 macrophages)	fluorescence of the probe itself [2]	absorption maximum [3]	fluorescence intensity after the addition of peroxynitrite [4]
CC(=O)Oc1ccc(N(C)c2ccc3c(c2)Oc2cc(OC(C)=O)ccc2C32OC(=O)c3ccccc32)cc1 (stereo not drawn) [Compound 12a]	induced	very weak fluorescence						
CC(=O)Oc1cc2c(cc1Cl)C1(OC(=O)c3ccccc31)c1cc(Cl)c(N(C)c3ccc(CCC(=O)C(F)(F)F)cc3)cc1O2 (stereo not drawn) [Compound 22]		very weak fluorescence	induced	strong fluorescence	suitable for the detection of peroxynitrite			
CN(c1ccc(O)cc1)c1ccc2c(ccc3c(-c4ccccc4C(=O)O)c4cc(Cl)c(=O)cc-4oc32)c1 [Compound 30]						may be non-fluorescent	about 540 nm	increases significantly
